Values of other authors in patent publication US20080254098A1, “Neural tube birth defect reduction with folic acid delivery in catamenial hygiene products” (priority 2007, published 2008).

Legend:
[1] = basis of the recommended daily intake of 2 mcg to 3 mcg
[2] = Norway; daily folic acid supplements of 0.4 mg or more
[3] = red blood cell folate

Compound | absorption rate [1] [%] | reduction of risk of cleft lip, with or without cleft palate [2] [%] | births with neural tube defects (Nova Scotia, Canada, 1998-2000, after fortification began in 1998, 2.58 per 1000 in 1991-1997 before it) | percent of women with one previous neural tube defect pregnancy who had a lower risk of another child with this birth defect (Wald 1991, prescription doses of folic acid versus placebo) [%] | reduction of incidence of neural tube defects by adequate supplementing with folic acid (current estimate, depends on local dietary habits and ethnicity) | biological half-life [3]
cyanocobalamin [vitamin B12] | 50 | – | – | – | – | –
Nc1nc2ncc(CNc3ccc(C(=O)N[C@@H](CCC(=O)O)C(=O)O)cc3)nc2c(=O)[nH]1 [folic acid] | – | 40 | 1.17 per 1,000 | 72 | 50%-70% | approximately 8 weeks
